Measurements: PubChem BioAssay AID248 (DTP/NCI, 2004)
Several values for one entry are separate records, joined by “and”; a condition that tells them apart may be missing. Equal entries are not always repeated. Inconclusive results and toxic doses are left out.

Tested on: L1210 leukemia ip in BDF1 mice, survival T/C
Assay: NCI In Vivo Anticancer Drug Screen. Data for tumor model L1210 Leukemia (intraperitoneal) in B6D2F1 (BDF1) mice
Details: endpoint: mean survival time, higher = longer survival
Method in brief: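 Transplanted-tumor mice were given test agent; controls received vehicle only. Survival readings from the two groups were divided (treated over control).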

[1] = dose: 100.0 mg/kg/injection, schedule: Q01DX009 (ip), vehicle: Klucel (hydroxypropylcellulose) (HPC)
[2] = dose: 200.0 mg/kg/injection, schedule: Q01DX009 (ip), vehicle: Klucel (hydroxypropylcellulose) (HPC)
[3] = dose: 400.0 mg/kg/injection, schedule: Q01DX009 (ip), vehicle: Klucel (hydroxypropylcellulose) (HPC)

## O=C(CCCCl)N1CCCC1
dose: 100.0 mg/kg/injection, schedule: Q04DX002 (ip), vehicle: saline
  T/C: 98 % of control
dose: 200.0 mg/kg/injection, schedule: Q04DX002 (ip), vehicle: saline
  T/C: 91 % of control
dose: 400.0 mg/kg/injection, schedule: Q04DX002 (ip), vehicle: saline
  T/C: 94 % of control

## COc1cc(N(CCCl)CCCl)c(OC)cc1C=Nc1ccc(-c2nc(Cc3ccccc3)sc2C)cc1
dose: 4.0 mg/kg/injection, schedule: Q01DX009 (ip), vehicle: other
  T/C: 117 % of control
dose: 6.0 mg/kg/injection, schedule: Q01DX009 (ip), vehicle: other
  T/C: 123 % of control
dose: 9.0 mg/kg/injection, schedule: Q01DX009 (ip), vehicle: other
  T/C: 120 % of control
dose: 12.5 mg/kg/injection, schedule: Q01DX001 (ip), vehicle: carboxymethylcellulose (CMC)
  T/C: 105 % of control
dose: 25.0 mg/kg/injection, schedule: Q01DX001 (ip), vehicle: carboxymethylcellulose (CMC)
  T/C: 105 % of control
dose: 44.0 mg/kg/injection, schedule: Q01DX001 (ip), vehicle: carboxymethylcellulose (CMC)
  T/C: 110 % of control
dose: 44.0 mg/kg/injection, schedule: Q01DX009 (ip), vehicle: other
  T/C: 160 % of control
dose: 66.0 mg/kg/injection, schedule: Q01DX009 (ip), vehicle: carboxymethylcellulose (CMC)
  T/C: 102 % of control
dose: 100.0 mg/kg/injection, schedule: Q01DX009 (ip), vehicle: carboxymethylcellulose (CMC)
  T/C: 88 % of control
dose: 150.0 mg/kg/injection, schedule: Q01DX001 (ip), vehicle: carboxymethylcellulose (CMC)
  T/C: 153 % of control

## S=C(Nc1ccccc1)N1CCCCC1
dose: 50.0 mg/kg/injection, schedule: Q01DX001 (ip), vehicle: carboxymethylcellulose (CMC)
  T/C: 97 % of control
dose: 100.0 mg/kg/injection, schedule: Q01DX001 (ip), vehicle: carboxymethylcellulose (CMC)
  T/C: 100 % of control
dose: 200.0 mg/kg/injection, schedule: Q01DX001 (ip), vehicle: carboxymethylcellulose (CMC)
  T/C: 97 % of control
dose: 400.0 mg/kg/injection, schedule: Q01DX001 (ip), vehicle: carboxymethylcellulose (CMC)
  T/C: 103 % of control

## CCOC(=O)C12CCCCC1=CC1(CC2)SCCS1 (stereo not drawn)
dose: 100.0 mg/kg/injection, schedule: Q01DX009 (ip), vehicle: acetone
  T/C: 88 % of control
dose: 200.0 mg/kg/injection, schedule: Q01DX009 (ip), vehicle: acetone
  T/C: 91 % of control
dose: 400.0 mg/kg/injection, schedule: Q01DX009 (ip), vehicle: acetone
  T/C: 246 % of control

## NC(=O)C(CC(=O)OCc1ccccc1)NC(=O)OCc1ccccc1 (stereo not drawn)
dose: 100.0 mg/kg/injection, schedule: Q01DX009 (ip), vehicle: saline with Tween-80
  T/C: 92 % of control
dose: 200.0 mg/kg/injection, schedule: Q01DX009 (ip), vehicle: saline with Tween-80
  T/C: 90 % of control
dose: 400.0 mg/kg/injection, schedule: Q01DX009 (ip), vehicle: saline with Tween-80
  T/C: 97 % of control

## CN1CCC2CCCCC2C1Cc1ccc(Oc2ccc(CC3C4CCCCC4CCN3C)cc2)cc1 (stereo not drawn)
dose: 0.78 mg/kg/injection, schedule: Q04DX002 (ip), vehicle: Klucel (hydroxypropylcellulose) (HPC)
  T/C: 91 % of control
dose: 1.56 mg/kg/injection, schedule: Q04DX002 (ip), vehicle: Klucel (hydroxypropylcellulose) (HPC)
  T/C: 88 % of control
dose: 3.12 mg/kg/injection, schedule: Q04DX002 (ip), vehicle: Klucel (hydroxypropylcellulose) (HPC)
  T/C: 91 % of control

## CC(=O)Nc1ccc(NC(=O)c2cccc3ccccc23)cc1
dose: 50.0 mg/kg/injection, schedule: Q01DX009 (ip), vehicle: Klucel (hydroxypropylcellulose) (HPC)
  T/C: 90 % of control
[1]
  T/C: 98 % of control and 86 % of control and 90 % of control
[2]
  T/C: 86 % of control
[3]
  T/C: 87 % of control and 89 % of control

## CC12CC3CC(C)(C1)CC(CN=C(N)CCl)(C3)C2
dose: 6.25 mg/kg/injection, schedule: Q01DX009 (ip), vehicle: Klucel (hydroxypropylcellulose) (HPC)
  T/C: 106 % of control
dose: 12.5 mg/kg/injection, schedule: Q01DX009 (ip), vehicle: Klucel (hydroxypropylcellulose) (HPC)
  T/C: 100 % of control
dose: 12.5 mg/kg/injection, schedule: Q04DX002 (ip), vehicle: Klucel (hydroxypropylcellulose) (HPC)
  T/C: 96 % of control
dose: 25.0 mg/kg/injection, schedule: Q04DX002 (ip), vehicle: Klucel (hydroxypropylcellulose) (HPC)
  T/C: 96 % of control

## Nc1nc([Se])c2cc[nH]c2n1
dose: 12.5 mg/kg/injection, schedule: Q01DX009 (ip), vehicle: water
  T/C: 107 % of control
dose: 25.0 mg/kg/injection, schedule: Q01DX009 (ip), vehicle: water
  T/C: 102 % of control
dose: 25.0 mg/kg/injection, schedule: Q04DX003 (ip), vehicle: water
  T/C: 97 % of control
dose: 50.0 mg/kg/injection, schedule: Q01DX009 (ip), vehicle: water
  T/C: 104 % of control
dose: 50.0 mg/kg/injection, schedule: Q04DX003 (ip), vehicle: water
  T/C: 102 % of control
dose: 100.0 mg/kg/injection, schedule: Q04DX003 (ip), vehicle: water
  T/C: 94 % of control and 95 % of control

## CSc1nc(N)nc2c1ncn2C1OC(CO)C(O)C1O (stereo not drawn)
dose: 63.0 mg/kg/injection, schedule: Q01DX009 (ip), vehicle: saline
  T/C: 98 % of control
dose: 100.0 mg/kg/injection, schedule: Q01DX001 (ip), vehicle: saline
  T/C: 105 % of control
dose: 108.0 mg/kg/injection, schedule: Q01DX009 (ip), vehicle: saline
  T/C: 98 % of control
dose: 178.0 mg/kg/injection, schedule: Q01DX001 (ip), vehicle: saline
  T/C: 110 % of control
dose: 180.0 mg/kg/injection, schedule: Q01DX009 (ip), vehicle: saline
  T/C: 118 % of control
dose: 200.0 mg/kg/injection, schedule: Q01DX001 (ip), vehicle: saline
  T/C: 112 % of control
dose: 267.0 mg/kg/injection, schedule: Q01DX001 (ip), vehicle: saline
  T/C: 121 % of control

## CC1(C)C2CCC1(C)C(N1C(c3ccccc3)C1c1ccccc1)C2 (stereo not drawn)
[1]
  T/C: 90 % of control
[2]
  T/C: 88 % of control
[3]
  T/C: 90 % of control

## COc1ccc(/C=N/NC(=O)c2ccc(N=NN(C)C)cc2)c(OC)c1
dose: 75.0 mg/kg/injection, schedule: Q04DX003 (ip), vehicle: Klucel (hydroxypropylcellulose) (HPC)
  T/C: 104 % of control
dose: 150.0 mg/kg/injection, schedule: Q04DX003 (ip), vehicle: Klucel (hydroxypropylcellulose) (HPC)
  T/C: 97 % of control
dose: 300.0 mg/kg/injection, schedule: Q04DX003 (ip), vehicle: Klucel (hydroxypropylcellulose) (HPC)
  T/C: 99 % of control

## Cc1ccc2c(c1)CC(C)([CH2][Hg][Cl])O2 (stereo not drawn)
dose: 3.0 mg/kg/injection, schedule: Q01DX009 (ip), vehicle: Klucel (hydroxypropylcellulose) (HPC)
  T/C: 91 % of control
dose: 3.0 mg/kg/injection, schedule: Q04DX003 (ip), vehicle: Klucel (hydroxypropylcellulose) (HPC)
  T/C: 90 % of control
dose: 6.0 mg/kg/injection, schedule: Q01DX009 (ip), vehicle: Klucel (hydroxypropylcellulose) (HPC)
  T/C: 91 % of control
dose: 6.0 mg/kg/injection, schedule: Q04DX003 (ip), vehicle: Klucel (hydroxypropylcellulose) (HPC)
  T/C: 87 % of control
dose: 12.0 mg/kg/injection, schedule: Q04DX003 (ip), vehicle: Klucel (hydroxypropylcellulose) (HPC)
  T/C: 92 % of control
